According to PMC5923171, “Novel Zinc-Attenuating Compounds as Potent Broad-Spectrum Antifungal Agents with In Vitro and In Vivo Efficacy” (Antimicrobial Agents and Chemotherapy, 2018):
In brackets after ≈: the same amount, converted by molar mass. Marks after values point to notes of the source that are not given here.

What was measured:
[1] = Potentiometric titration with CaCl2; format: binding; conditions: DMSO-water (70:30, vol/vol)
Description: The Zn^2+-binding properties of ZAC307 and ZAC989 were further evaluated using a potentiometric assay, where pH is measured as a function of base (NaOH) added to the compound in either the absence or presence of metal. […] To determine the deprotonation constant, a solution of 1 mM ZAC307 or ZAC989 was titrated with 0.3 M NaOH at constant ionic strength (Fig. 2A and B). In a second run, the same titration was performed in the presence of 0.5 eq of Zn^2+ for ZAC307 and ZAC989. A shift in the pH curve in the presence of the metal (ZAC307, 0.5 eq of Zn^2+ [Fig. 2A]) compared to the absence of the metal (ZAC307 [Fig. 2A]) indicates binding of Zn^2+ to the compound. The measured pH data were analyzed with the Hyperquad program suite, taking into account all relevant equilibrium constants, including also the constants for metal hydroxylation. The analysis provides the pKa values and metal complex stability constants, as well as ligand-metal complex speciation calculation, indicating how many ZAC molecules are involved in coordinating the Zn^2+ ion at different pH values. […] ZAC989 bound copper with the formation constants log β1, log β2, and log β3 of 7.83, 13.37, and 20.62, respectively. The most dominant ZAC989-copper stoichiometry was a 3:1 stoichiometry (Fig. 2E).
Potentiometric measurements were carried out in DMSO-water (70:30, vol/vol) at 25°C as described previously ([22]). […]

[2] = tested on: Rhizopus microsporus ATCC 66276; experiment: Antifungal susceptibility testing (MIC); format: cell-based; conditions: ATCC66276, no visible growth, 48 to 72 h, 34°C
Description: (§1) Antifungal susceptibility testing was carried out as described previously ([38], [39]), with a few modifications. Briefly, for each yeast or mold growth inhibition assay, frozen stocks of yeast cells or spores were diluted to a final concentration of 0.5 × 10^5 to 2.5 × 10^5 CFU/ml in sterile water. ZAC989, ZAC307, and ZAC623 were dissolved in DMSO to 10 mM stocks from which half-log serial dilutions were prepared. Growth assays were subsequently performed by pipetting 3 μl of compound dissolved in DMSO (giving a final concentration of 1.5% DMSO), 100 μl of cell-spore suspension, and 97 μl of 2× RPMI medium (20.8 g/liter of RPMI 1640 medium, 69.06 g/liter of morpholinepropanesulfonic acid [MOPS], 36 g/liter of glucose) into a microtiter plate that was incubated for 24 h (yeasts) or 48 to 72 h (molds) at 34°C. Fungal growth was determined spectrophotometrically by optical density reading of each well at a wavelength of 492 nm on a Victor X5 (Perkin-Elmer) plate reader. […] Standard errors between repeated experiments were generally below 5%. The growth effect of exogenous addition of various divalent metals was evaluated by performing the antifungal susceptibility assay in the presence of 5 μM ZAC989 or ZAC307 and with increasing concentrations (0.003 to 50 μM) of ZnSO4, CuSO4, (NH4)2Fe(SO4)2, MgCl2, and CaCl2.

[3] = tested on: Mucor indicus ATCC MYA-4678; experiment: Antifungal susceptibility testing (MIC); format: cell-based; conditions: no visible growth, 48 to 72 h, 34°C
Description: as §1

[4] = tested on: Aspergillus flavus ATCC 15547; experiment: Antifungal susceptibility testing (MIC); format: cell-based; conditions: ATCC15547, no visible growth, 48 to 72 h, 34°C
Description: as §1

C. tropicalis Ct016 = experiment: Antifungal susceptibility testing (MIC); format: cell-based; conditions: Candida tropicalis, at least 50% growth inhibition, RPMI, 24 h, 34°C
Description: as §1

[5] = tested on: Aspergillus terreus At070; experiment: Antifungal susceptibility testing (MIC); format: cell-based; conditions: no visible growth, 48 to 72 h, 34°C
Description: as §1

[6] = tested on: Aspergillus fumigatus ATCC 13073; experiment: Antifungal susceptibility testing (MIC); format: cell-based; conditions: ATCC13073, no visible growth, 48 to 72 h, 34°C
Description: as §1

[7] = tested on: Rhizopus oryzae ATCC 34965; experiment: Antifungal susceptibility testing (MIC); format: cell-based; conditions: Rhizopus arrhizus, ATCC34965; no visible growth, 48 to 72 h, 34°C
Description: as §1

Candida albicans SC5314 = experiment: In vivo fungal kidney burden candidiasis model; parameters: species or system BALB/c mice; conditions: for Mean log CFU/kidney / Mean log CFU/kidney reduction: 60 mg/kg i.p. twice a day; for Mean log CFU/kidney reduction: vs untreated control; for adverse effects following dosing: 60 mg/kg i.p., mice
Description: A murine model of systemic candidiasis was established according to a previously described method ([44]). BALB/c mice were infected with a 0.1-ml inoculum (1 × 10^5 to 5 × 10^5 CFU) of Candida albicans SC5314 cells by the intravenous route on day 0. Compounds were tested at doses of 60 mg/kg. Administration of compound was initiated 24 h prior (day −1) to infection (day 0) by the intraperitoneal route, dosing twice a day for 4 days (day −1 to day 2). ZAC307 was also evaluated with administration of the compounds given after the infection at day 0 (no pretreatment) and following dosing twice a day for 3 days (days 0 to 2). Fluconazole was used as a comparator drug. Six mice were used for each group, and the untreated control group was exposed to the vehicle alone. ZAC989 and ZAC307 were formulated by taking 60 mg of compound and adding this to 2 ml and 4 ml of 0.1 N NaOH, respectively. After mixing and sonication of the resulting solutions, 4 ml of purified water was added. The pH was adjusted to 9.0 with 0.1 N HCl solution, followed by the addition of 90 mg of NaCl. The solutions were then diluted to 10 ml and filtered through a 0.22-μm polyvinylidene difluoride (PVDF) filter. Sample collection and processing were performed as follows. Twelve hours after the last dose, all treated and untreated animals were sacrificed by cervical dislocation and kidneys were collected in 3 ml of sterile normal saline. The samples were homogenized, serially diluted, and plated on Sabouraud dextrose agar (SDA). SDA plates were incubated for 24 to 48 h at 35°C, and CFU were enumerated and reported as log CFU/kidney. The endpoint was mean log CFU of fungi in kidneys of treated animals compared to that of untreated animals. The study was conducted in conformance with an application submitted to the Committee for the Purpose of Control and Supervision of Experiments on Animals (CPCSEA), New Delhi, India, after approval from the Institutional Animal Ethics Committee (IAEC).

| Structure (SMILES) | Ca^2+ binding [1] | MIC [2] | MIC [3] | MIC [4] | MIC (C. tropicalis Ct016) | MIC [5] | MIC [6] | MIC [7] | Mean log CFU/kidney (Candida albicans SC5314; day −1 to day 2 (pretreatment)) | Mean log CFU/kidney reduction (Candida albicans SC5314; day −1 to day 2 (pretreatment)) | adverse effects following dosing (Candida albicans SC5314) | Mean log CFU/kidney (Candida albicans SC5314; days 0 to 2, no pretreatment) | Mean log CFU/kidney reduction (Candida albicans SC5314; days 0 to 2, no pretreatment) |
| --- | --- | --- | --- | --- | --- | --- | --- | --- | --- | --- | --- | --- | --- |
| Cc1cc(O)n(-c2cc(N3CC[C@H](Oc4cnccc4C#N)C3)ncn2)n1 [ZAC989, 3-[(3S)-1-[6-(5-hydroxy-3-methyl-pyrazol-1-yl)pyrimidin-4-yl]pyrrolidin-3-yl]oxy-pyridine-4-carbonitrile] | negligible | 0.5 µg/mL (≈ 1.38 µM) | 1.1 µg/mL (≈ 3.03 µM) | 5.1 µg/mL (≈ 14 µM) | 0.9 µg/mL (≈ 2.48 µM) | 1.6 µg/mL (≈ 4.4 µM) | 5.4 µg/mL (≈ 14.9 µM) | 1.7 µg/mL (≈ 4.68 µM) | 4.09 ± 0.31 log CFU/kidney | 1.71 log CFU/kidney | lethargy lasting for 5 to 15 min after dosing |  |  |
| CN(C)c1cc(-n2nc(-c3ccccc3)cc2O)ncn1 [ZAC307, 2-[6-(dimethylamino)pyrimidin-4-yl]-5-phenyl-pyrazol-3-ol] | negligible | 0.4 µg/mL (≈ 1.42 µM) | 1.3 µg/mL (≈ 4.62 µM) | 1.3 µg/mL (≈ 4.62 µM) | 0.4 µg/mL (≈ 1.42 µM) | 1.3 µg/mL (≈ 4.62 µM) | 4 µg/mL (≈ 14.2 µM) | 1.3 µg/mL (≈ 4.62 µM) | 4.73 ± 0.19 log CFU/kidney | 1.06 log CFU/kidney | no adverse effects | 4.77 ± 0.19 log CFU/kidney | 1.03* log CFU/kidney |
